21 molecules from US20240327382A1 (ALMAC DISCOVERY LIMITED, priority 2021, published 2024) can be followed below.

The target of the test is T1, Full-length USP19 (Homo sapiens, UniProt O94966).
T1 construct: Full-length USP19 was purchased from Boston Biochem (E-576); purchased Boston Biochem E-576
T1 sequence (O94966 1-1318): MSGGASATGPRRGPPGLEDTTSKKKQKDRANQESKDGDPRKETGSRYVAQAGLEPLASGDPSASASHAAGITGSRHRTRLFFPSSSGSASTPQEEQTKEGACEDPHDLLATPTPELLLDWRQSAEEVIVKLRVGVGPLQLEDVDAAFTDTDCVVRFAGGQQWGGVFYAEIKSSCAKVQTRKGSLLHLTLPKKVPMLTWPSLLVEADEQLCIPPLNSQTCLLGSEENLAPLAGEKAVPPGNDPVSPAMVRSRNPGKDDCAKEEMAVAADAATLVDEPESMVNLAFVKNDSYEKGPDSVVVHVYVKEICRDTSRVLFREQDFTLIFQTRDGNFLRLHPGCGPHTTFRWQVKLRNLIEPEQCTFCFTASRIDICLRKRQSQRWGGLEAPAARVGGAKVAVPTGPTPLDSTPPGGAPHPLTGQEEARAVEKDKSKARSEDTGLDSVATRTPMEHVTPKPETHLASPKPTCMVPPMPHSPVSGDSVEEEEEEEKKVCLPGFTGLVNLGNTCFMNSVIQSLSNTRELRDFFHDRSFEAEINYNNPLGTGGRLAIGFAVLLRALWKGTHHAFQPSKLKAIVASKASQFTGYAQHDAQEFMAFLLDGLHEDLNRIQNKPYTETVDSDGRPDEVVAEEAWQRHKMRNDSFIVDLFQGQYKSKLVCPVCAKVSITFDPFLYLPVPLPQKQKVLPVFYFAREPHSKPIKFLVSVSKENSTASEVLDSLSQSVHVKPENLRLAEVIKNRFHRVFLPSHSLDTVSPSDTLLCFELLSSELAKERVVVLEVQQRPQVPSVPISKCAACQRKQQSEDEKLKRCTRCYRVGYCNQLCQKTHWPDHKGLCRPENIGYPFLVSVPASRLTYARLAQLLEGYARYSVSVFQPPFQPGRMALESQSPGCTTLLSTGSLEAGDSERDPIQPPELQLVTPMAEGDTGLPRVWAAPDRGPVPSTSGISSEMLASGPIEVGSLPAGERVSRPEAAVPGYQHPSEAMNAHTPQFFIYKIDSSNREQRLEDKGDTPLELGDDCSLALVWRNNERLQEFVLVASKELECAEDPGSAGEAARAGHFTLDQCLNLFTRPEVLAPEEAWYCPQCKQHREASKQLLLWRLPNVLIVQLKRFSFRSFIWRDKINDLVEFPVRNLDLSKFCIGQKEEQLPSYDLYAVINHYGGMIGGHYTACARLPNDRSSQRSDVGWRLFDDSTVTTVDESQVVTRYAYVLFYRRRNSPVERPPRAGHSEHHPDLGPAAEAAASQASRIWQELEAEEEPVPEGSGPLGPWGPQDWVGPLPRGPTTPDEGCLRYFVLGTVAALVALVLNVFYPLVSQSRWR
As to the kind of experiment: USP19 fluorescence polarisation (FP) assay, Ubiquitin-Lys-TAMRA substrate. As to conditions: average of at least two duplicate experiments. Type of test: biochemical. Put shortly: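 Fluorescence polarisation (excitation 530 nm, parallel and perpendicular emission at 575 nm) was recorded every 15 min for 90 min after adding the ubiquitin-Lys-TAMRA isopeptide (500 nM as dispensed). Beforehand, the full-length enzyme (2.5 nM as dispensed) sat 30 min at RT with compound diluted from 200 μM to 2 μM in HEPES pH 7.4 buffer with 150 mM NaCl, 5 mM DTT, 0.05% BSA and 0.05% CHAPS. Values normalised to uninhibited wells gave IC50s by non-linear fitting, each the mean of two or more duplicate runs.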
Background: In fluorescence polarisation assays a small probe gives low polarisation when free and higher when bound to something large.
Take `CNC(=O)[C@@H]1CCN(C(=O)N2CC[C@@H](Cn3cnc(-c4ccccc4)cc3=O)C3(CCCC3)C2)[C@H](c2ccccc2)C1` [Example 176, (2S,4R)-N-Methyl-1-((R)-10-((6-oxo-4-phenylpyrimidin-1(6H)-yl)methyl)-7-azaspiro[4.5]decane-7-carbonyl)-2-phenylpiperidine-4-carboxamide]: the IC50 lay in the range of 100 to 1000 nM.
On to `O=C(N1CC[C@@H](Cn2ccc(Cl)cc2=O)C2(CCCC2)C1)N1CC[C@@H](NC2CC(F)(F)C2)C[C@H]1c1cc(F)ccc1F` [Example 186, 4-Chloro-1-(((R)-7-((2S,4R)-4-((3,3-difluorocyclobutyl)amino)-2-(2,5-difluorophenyl)piperidine-1-carbonyl)-7-azaspiro[4.5]decan-10-yl)methyl)pyridin-2(1H)-one], for which the IC50 is 10 to 100 nM.
For the molecule `O=C(N1CC[C@@H](Cn2cnc(-c3ccccc3)cc2=O)C2(CCCC2)C1)N1CC[C@@H](Nc2ccccc2)C[C@H]1c1ccccc1` [Example 150, 6-Phenyl-3-(((R)-7-((2S,4R)-2-phenyl-4-(phenylamino)piperidine-1-carbonyl)-7-azaspiro[4.5]decan-10-yl)methyl)pyrimidin-4(3H)-one], the IC50 was in the range of 1000 to 20000 nM.
For the molecule `CN[C@@H]1CCN(C(=O)N2CC[C@@H](Cn3cnc(-c4ccccc4C)cc3=O)C3(CCCC3)C2)[C@H](c2cc(F)ccc2F)C1` [Example 114, 3-(((R)-7-((2S,4R)-2-(2,5-Difluorophenyl)-4-(methylamino)piperidine-1-carbonyl)-7-azaspiro[4.5]decan-10-yl)methyl)-6-(o-tolyl)pyrimidin-4(3H)-one], the IC50 was less than 10 nM.
Turning to `CN(C)[C@@H]1CCN(C(=O)N2CC[C@@H](Cn3cnc4ccc(F)cc4c3=O)C3(CCCC3)C2)[C@H](c2cc(F)ccc2F)C1` [Example 174, 3-(((R)-7-((2S,4R)-2-(2,5-Difluorophenyl)-4-(dimethylamino)piperidine-1-carbonyl)-7-azaspiro[4.5]decan-10-yl)methyl)-6-fluoroquinazolin-4(3H)-one], the IC50 was less than 10 nM.
For `N[C@@H]1CCN(C(=O)N2CCC(Cn3cnc(C(F)F)cc3=O)C3(CCCC3)C2)[C@H](c2ccccc2)C1` (stereo partly drawn) [Example 28, 3-((7-((2S,4R)-4-Amino-2-phenylpiperidine-1-carbonyl)-7-azaspiro[4.5]decan-10-yl)methyl)-6-(difluoromethyl) pyrimidin-4(3H)-one], the IC50 lay in the range of 10 to 100 nM.
With `N[C@@H]1CCN(C(=O)N2CCC(Cn3cnc4ccc(F)cc4c3=O)C3(CCCC3)C2)[C@H](c2ccccc2)C1` (stereo partly drawn) [Example 27, 3-((7-((2S,4R)-4-Amino-2-phenylpiperidine-1-carbonyl)-7-azaspiro[4.5]decan-10-yl)methyl)-6-fluoroquinazolin-4(3H)-one], the IC50 was less than 10 nM.
On to `O=C(N1CCC(Cn2cnc(-c3ccccc3)cc2=O)C2(CCCC2)C1)N1CCC[C@H]1c1ccccc1` (stereo partly drawn) [Example 8, 6-Phenyl-3-((7-((S)-2-phenylpyrrolidine-1-carbonyl)-7-azaspiro[4.5]decan-10-yl)methyl)pyrimidin-4(3H)-one], for which the IC50 fell in the range of 100 to 1000 nM.
`N[C@@H]1CCN(C(=O)N2CC[C@@H](Cn3ccc(Cl)cc3=O)C3(CCCC3)C2)[C@H](c2ccccc2)C1` [Example 67, 1-(((R)-7-((2S,4R)-4-Amino-2-phenylpiperidine-1-carbonyl)-7-azaspiro[4.5]decan-10-yl)methyl)-4-chloropyridin-2(1H)-one]: the IC50 is less than 10 nM.
Regarding `N[C@@H]1CCN(C(=O)N2CCC(Cn3cnc4cc(F)c(F)cc4c3=O)C3(CCCC3)C2)[C@H](c2ccccc2)C1` (stereo partly drawn) [Example 37, 3-((7-((2S,4R)-4-Amino-2-phenylpiperidine-1-carbonyl)-7-azaspiro[4.5]decan-10-yl)methyl)-6,7-difluoroquinazolin-4(3H)-one], the IC50 was less than 10 nM.
In the case of `O=C(N1CC[C@@H](Cn2ccc(-c3ccccc3)cc2=O)C2(CCCC2)C1)N1CCNC[C@H]1c1ccccc1` (single isomer, unassigned) [Example 16], the IC50 was less than 10 nM.
`CC[C@@H]1C[C@H](N)CCN1C(=O)N1CC[C@@H](Cn2ccc(-c3ccccc3)cc2=O)C2(CCCC2)C1` [Example 68, 1-(((R)-7-((2R,4R)-4-Amino-2-ethylpiperidine-1-carbonyl)-7-azaspiro[4.5]decan-10-yl)methyl)-4-phenylpyridin-2(1H)-one]: the half-maximal inhibitory concentration (IC50) lay within 10 to 100 nM.
Regarding `CN[C@@H]1CCN(C(=O)N2CC[C@@H](Cn3ccc(-c4ccccc4OC)cc3=O)C3(CCCC3)C2)[C@H](c2cccc(F)c2F)C1` [Example 131, 1-(((R)-7-((2S,4R)-2-(2,3-Difluorophenyl)-4-(methylamino)piperidine-1-carbonyl)-7-azaspiro[4.5]decan-10-yl)methyl)-4-(2-methoxyphenyl)pyridin-2(1H)-one], the IC50 is less than 10 nM.
As to `O=C(N1CC[C@@H](Cn2cnc(-c3ccccc3)cc2=O)C2(CCCC2)C1)N1CC[C@@H](NCCF)C[C@H]1c1cccc(F)c1` [Example 196, 3-(((R)-7-((2S,4R)-4-((2-Fluoroethyl)amino)-2-(3-fluorophenyl)piperidine-1-carbonyl)-7-azaspiro[4.5]decan-10-yl)methyl)-6-phenylpyrimidin-4(3H)-one], the IC50 was less than 10 nM.
For `N[C@@H]1CCN(C(=O)N2CC[C@@H](Cn3cnc(-c4ccccc4)cc3=O)C3(CCCC3)C2)[C@H](c2cccc(F)c2)C1` [Example 66, 3-(((R)-7-((2,4R)-4-Amino-2-(3-fluorophenyl)piperidine-1-carbonyl)-7-azaspiro[4.5]decan-10-yl)methyl)-6-phenylpyrimidin-4(3H)-one] the value was less than 10 nM; for `CN[C@@H]1CCN(C(=O)N2CC[C@@H](Cn3ccc(-c4ccccc4C)cc3=O)C3(CCCC3)C2)[C@H](c2ccccc2)C1` [Example 54, 1-(((R)-7-((2S,4R)-4-(Methylamino)-2-phenylpiperidine-1-carbonyl)-7-azaspiro[4.5]decan-10-yl)methyl)-4-(o-tolyl)pyridin-2(1H)-one], less than 10 nM.
For `CN[C@@H]1CCN(C(=O)N2CC[C@@H](Cn3ccc(-c4ccccc4)cc3=O)C3(CCCC3)C2)[C@H](c2cccc(F)c2)C1` [Example 64, 1-(((R)-7-((2S,4R)-2-(3-Fluorophenyl)-4-(methylamino)piperidine-1-carbonyl)-7-azaspiro[4.5]decan-10-yl)methyl)-4-phenylpyridin-2(1H)-one] the value was less than 10 nM.
On to `N[C@@H]1CCN(C(=O)N2CCC(Cn3ccc(-c4ccccc4)cc3=O)CC2)[C@H](c2ccccc2)C1` [Example 17, 1-((1-((2S,4R)-4-Amino-2-phenylpiperidine-1-carbonyl)piperidin-4-yl)methyl)-4-phenylpyridin-2(1H)-one], for which the IC50 fell in the range of 10 to 100 nM.
Turning to `COC[C@H](CC(F)(F)F)C(=O)N1CCC(Cn2cnc(-c3ccccc3)cc2=O)C2(CCCC2)C1` (stereo partly drawn) [Example 7, 6-Phenyl-3-((7-((S)-4,4,4-trifluoro-2-(methoxymethyl)butanoyl)-7-azaspiro[4.5]decan-10-yl)methyl)pyrimidin-4(3H)-one], the IC50 lay in the range of 1000 to 20000 nM.
As for `CCN[C@@H]1CCN(C(=O)N2CC[C@@H](Cn3cnc(-c4ccccc4)cc3=O)C3(CCCC3)C2)[C@H](c2cc(F)ccc2F)C1` [Example 156, 3-(((R)-7-((2S,4R)-2-(2,5-Difluorophenyl)-4-(ethylamino)piperidine-1-carbonyl)-7-azaspiro[4.5]decan-10-yl)methyl)-6-phenylpyrimidin-4(3H)-one], the 50% inhibitory concentration (IC50) was less than 10 nM.
To `N[C@@H]1CCN(C(=O)N2CCC(Cn3ccc(C(F)(F)F)cc3=O)C3(CCCC3)C2)[C@H](c2ccccc2)C1` (stereo partly drawn) [Example 43, 1-((7-((2S,4R)-4-Amino-2-phenylpiperidine-1-carbonyl)-7-azaspiro[4.5]decan-10-yl)methyl)-4-(trifluoromethyl) pyridin-2(1H)-one] belongs 10 to 100 nM.

As usually defined, the IC50 is the concentration that inhibits the measured activity by half.
